# Laboratory results published in US7666996B2, “Casein derived peptides and uses thereof” (priority 2000, dated 2010).
# Tests used:
# [1] = test system: Non-Obese Diabetic (NOD) mice; assay: Glucosuria in Non-Obese Diabetic (NOD) mice; type: in vivo; details: for prevention of glucosuria (in words): 100 μg once weekly for 5 weeks, 25 weeks; for Healthy/Total (sugar not detected in urine): female NOD mice, 100 μg synthetic peptide once weekly for 5 weeks, evaluated after 25 weeks; for Urine Sugar: individual healthy NOD mice, after 25 weeks
# Protocol: Juvenile (Type I, IDDM) diabetes in Non-Obese Diabetic (NOD) mice:
# Peptides derived from natural casein: NOD mice are a commonly used model for research of autoimmune disease and human Juvenile Diabetes. Six week old female NOD mice received either one or two injections per week of 100 μg of peptides derived from natural casein, for a total of 5 or 10 treatments. Control mice received no treatment. The severity of disease was determined according to glucosuria, which was measured using Combi test sticks [Gross, D. J. et al (1994), Diabetology, 37:1195]. Results were expressed as the percent of glucosuria-free mice in each sample over a 365-day period.
# Synthetic peptides derived from casein: In another experiment, 6 week old female NOD mice received one injection per week of 100 μg of Synthetic peptides derived from casein for a total of 5 treatments. Control mice received no treatment. Results were expressed as the number of healthy mice in the various treated groups.
# [2] = test system: female C57B⅙j mice fed an atherogenic diet; assay: Diet-induced hypercholesterol/hyperlipidemia in mice; type: in vivo; details: one week post 1 mg i.p.; for HDL: diet control 54.5; for LDL: diet control 326; for Total cholesterol (TC): diet control 393
# Protocol: The ability of synthetic casein derived peptides to reduce cholesterol levels in 7-week old female C57B⅙j mice was assessed after feeding an atherogenic diet. The mice were divided into groups of 8. One control group was fed a normal diet. A second control group was fed the modified Thomas Hartroft diet containing cholate (#TD 88051: Teklad, Madison, Wis.) [Gerber, D. W. et al., Journal of Lipid Research. 42, 2001]. The remaining experimental groups were all fed the modified Thomas Hartroft diet.
# Cholestrol blood levels were determined according to Roche Cholesterol Assay based on Roeschlou & Allin enzymatic method (Roche, Inc., Germany).
# [3] = test system: Non-Obese Diabetic (NOD) mice; assay: Intraperitoneal Glucose Tolerance Test (IPGTT) in NOD mice; type: in vivo; details: individual healthy NOD mice, 25 weeks after peptides; for IPGT TEST 60 min. post load plasma glucose: 60 min after i.p. glucose 1 g/kg; for IPGT TEST 0 min. (pre-load) plasma glucose: before glucose load
# Protocol: Intraperitoneal Glucose Tolerance Test (IPGTT): The glucose tolerance test is the definitive method for investigating glucose metabolism and diabetic tendencies in mammals. Twenty five (25) weeks after receiving Synthetic peptides derived from casein, response to a glucose load was assessed with an intraperitoneal glucose tolerance test. Glucose injection consisted of 1 g/kg body weight. Glycemic values were determined from blood drawn prior to test (0 minutes) and 60 minutes after loading.
# [4] = test system: HIV-1 (CEM lymphocyte cells); assay: Inhibition of HIV-1 infection of CEM lymphocytes; type: cell-based; details: for HIV-1 infection level, HIV-P24 antigen: 7 days post infection, control 0.52; for Cell counts: virus pre-treated 3 hours, infected control 1.06×10^6
# Protocol: Peptides: Peptides [either peptides derived from natural casein or synthetic peptides derived from casein (2-26 amino acids in length, see table 3)] supplied as lyophilized powder were resuspended in RPMI complete medium and added to cell cultures at a final concentrations of 50 to 1000 μg per ml.
# Cells: Several types of freshly isolated human cells (primary cells) and cell lines are known to be susceptible to in vitro HIV-1 infection, although essentially any cell displaying even low surface levels of the CD4 molecule can be considered a potential target for HIV-1 infection. Two commonly used human cell lines which are highly sensitive for HIV-1 infection were chosen, CEM and Sup-T1.
# CEM is a human T4-lymphoblastoid cell line initially derived by G. E. Foley et al. [(1965), Cancer 18:522] from peripheral blood buffy coat of a person with acute lymphoblastic leukemia. These cells were continuously maintained in suspension in medium, and have been used widely for analysis of infectivity, antiviral agents and neutralizing antibodies.
# Virus: The HIV virus strain employed was HIV-1IIIB, originally designated HTLV-IIIB. Concentrated culture fluids of peripheral blood from several patients with AIDS or related diseases were used to establish a permanent productive infection in H-9 cells. This subtype B virus has high capacity to replicate in human T-cell lines. Viral titer was 5.38 ng per ml in stock solution.
# HIV-1 P^24 antigen capture assay: An HIV-1 P^24 Antigen capture assay kit employed was designed to quantitate the HIV-1 P^24 core antigen, which is proportionally related to the degree of viral production in cells. This kit was purchased from the AIDS Vaccine program of the SAIC-NCI-Frederick Cancer Research Institute, P.O. Box B, Frederick, Md. 21702, USA and included 96 well plates coated with monoclonal antibody to HIV-1 P^24, primary antibody-rabbit anti-HIV P^24 serum, secondary antibody-Goat anti-rabbit-IgG (H+L) peroxidase conjugated antibody, TMB peroxidase substrate system and lysed HIV-1 P^24 standard. The HIV-1 P^24 antigen capture assay was analyzed by Organon-Technica ELISA reader at 450 nm with a reference at 650 nm.
# HIV-1 P^24 antigen capture ELISA: HIV infection was measured with an indirect enzyme immunoassay which detects HIV-1 P^24 core antigens in tissue culture media. Tissue culture supernatant was reacted with primary rabbit anti-HIV-1 P^24 antigen and visualized by peroxidase conjugated goat anti rabbit IgG. The reaction was terminated by adding 4N H2SO4, wherein the intensity of the color developed is proportional to the amount of HIV-1 antigen present in the tissue culture supernatant.
# HIV infection of human cultured CD4 cells: For longer incubations, the cells (CEM, Sup-T1) were preincubated with several increasing concentrations of peptides derived from natural casein (50-1000 μg per ml) or synthetic peptides derived from casein (10-500 μg per ml) for 24 (for synthetic and natural peptides) and 48 (only for natural peptides) hours and HIV-1IIIB (45 pg per ml final concentration) was added to each well thereafter. For the shorter incubations (3 hours), HIV-1IIIB was preincubated with the peptides for 3 hours and then added to cells (5000 cells/well) in tissue culture plates. Controls were IF (Infected, cells cultured with HIV-1 and without peptides), UIF (Uninfected, cells cultured without HIV-1 and without peptides) and UIF +Ch (Uninfected+peptides derived from natural casein, cells cultured in the presence of peptides derived from natural casein {50-1000 μg per ml}) to test the effect of peptides derived from natural casein and synthetic peptides derived from casein on cell viability and growth. Cells were counted for viability and proliferation rate on day 7, 10 and day 14 post infection (the day of P^24 antigen culture supernatant harvest). Cells and tissue culture supernatants (media) were harvested and lysed immediately in 1/10 volume of 10% Triton X-100. […]
# [5] = test system: irradiated, bone marrow transplanted mice; assay: Leukocyte and platelet reconstitution in bone marrow transplant recipient mice; type: in vivo; details: for white blood cell reconstitution (in words): F1 mice, 750 cGy, 1 mg i.v., days 5 and 7 post-reconstitution
# Protocol: Leukocyte and platelet reconstitution in bone marrow transplant recipient Mice: BALB/c mice were sub-lethally irradiated at a source to skin distance of 70 cm, dosage of 50 cGy per minute, for a total of 600 cGy. The irradiated mice were […] casein, synthetic peptides derived from casein (13-26 amino acids, see Table 3 above), or human serum albumin (controls), following a double-blinded protocol. Leukocyte reconstitution was determined according to cell count in peripheral blood collected at indicated intervals from 6 to 12 days post treatment. Platelet reconstitution was determined by cell count in blood collected from the retro orbital plexus, into EDTA-containing vials, at indicated intervals from day 6 to day 15 post treatment. […]
# In a third series of experiments, the mice were irradiated (800 cGy), reconstituted and injected intraperitoneally with 1.0 mg synthetic peptides derived from casein (peptides 3a and 4P, representing the first 6 and 12 amino acids of the N terminus of αS1 casein, respectively—see Table 3 above) daily, on days 4, 5, 6 and 7 post-transplantation. Platelet reconstitution was assayed at 10 and 12 days post-transplantation.
# In a fourth series of experiments, F1 mice were irradiated (750 cGy), reconstituted with syngeneic bone marrow, and injected intravenously 24 hours later with 1 mg per mouse of synthetic peptides derived from casein representing amino acids 1-22 of the N terminus of αS1 casein. In addition, 2 (two) groups of mice were treated each with a natural fraction of αS1 casein position 1-23, and a fraction of peptides derived from natural κ-casein, representing amino acid coordinates 106-169 of κ-casein (SEQ ID NO: 27). WBC counts were conducted on days 5, 7, 10 and 12 post-transplantation.
# [6] = 800 cGy, 1.0 mg i.p. daily, days 4-7
substance,measurement,setting,value
"RPKHPIKHQGL [2a, synthetic peptide, N-terminal 11 amino acids of αS1 casein]",prevention of glucosuria (in words),[1],highly effective
same,Healthy/Total (sugar not detected in urine),[1],4/5
same,Urine Sugar,[1],Negative
same,HDL,[2],41 mg/dL
same,LDL,[2],221 mg/dL
same,Total cholesterol (TC),[2],279 mg/dL
"RPKHPIKH [Y, synthetic peptide, N-terminal 8 amino acids of αS1 casein]",Healthy/Total (sugar not detected in urine),[1],1/5
same,Urine Sugar,[1],Negative
same,IPGT TEST 60 min. post load plasma glucose,[3],138 mg/dL
same,IPGT TEST 0 min. (pre-load) plasma glucose,[3],121 mg/dL
"RPKHP [3P, synthetic peptide, N-terminal 5 amino acids of αS1 casein]","HIV-1 infection level, HIV-P24 antigen",[4]; 10 μg per ml,0.26 ng P^24 Ag per ml
same,Cell counts,[4]; 10 μg per ml,1.17×10^6
same,"HIV-1 infection level, HIV-P24 antigen",[4]; 25 μg per ml,0.18 ng P^24 Ag per ml
same,Cell counts,[4]; 25 μg per ml,1.26×10^6
same,HDL,[2],42.5 mg/dL
same,LDL,[2],247 mg/dL
same,Total cholesterol (TC),[2],308 mg/dL
"RPKHPIKHQGLPQE [B, synthetic peptide, N-terminal 14 amino acids of αS1 casein]",Healthy/Total (sugar not detected in urine),[1],2/5
same,Urine Sugar,[1],Negative
same,IPGT TEST 0 min. (pre-load) plasma glucose,[3],130 mg/dL
"RPKHPIKHQGLPQEVLNENLLRF [synthetic peptide, N-terminal 23 amino acids of αS1 casein]",Healthy/Total (sugar not detected in urine),[1],2/5
same,Urine Sugar,[1],Negative
same,IPGT TEST 60 min. post load plasma glucose,[3],143 mg/dL
"RPKHPIKHQGLPQEVLNENLL [synthetic peptide, N-terminal 21 amino acids of αS1 casein]",Healthy/Total (sugar not detected in urine),[1],2/5
same,Urine Sugar,[1],Negative
same,IPGT TEST 60 min. post load plasma glucose,[3],138 mg/dL
κ-casein (106-169): gel filtration fraction comprising a peptide representing amino acid positions 106-169 of κ-casein,white blood cell reconstitution (in words),[5],dramatic enhancement
"RPKHPIKHQGLP [3a, synthetic peptide, N-terminal 12 amino acids of αS1 casein]",prevention of glucosuria (in words),[1],highly effective
same,Healthy/Total (sugar not detected in urine),[1],3/5
same,Urine Sugar,[1],Negative
same,"increase in platelet counts over control, 10 days post transplantation",[5]; [6],up to 35.5%
same,"increase in platelet counts over control, 12 days post transplantation",[5]; [6],up to 13.5%
same,"platelet counts, 12 days post transplantation",[5]; [6],622000 mL⁻¹
same,"platelet counts, 10 days post transplantation","[5]; 800 cGy, 1.0 mg i.p. daily, days 4-7, control 169",229000 mL⁻¹
"RPKHPIKHQGLPQ [A, synthetic peptide, N-terminal 13 amino acids of αS1 casein]",Healthy/Total (sugar not detected in urine),[1],2/5
same,Urine Sugar,[1],Negative
"RPKHPIKHQGLPQEVL [D, synthetic peptide, N-terminal 16 amino acids of αS1 casein]",Healthy/Total (sugar not detected in urine),[1],2/5
same,Urine Sugar,[1],Negative
α-S1 1-23: gel filtration fraction of natural casein peptides: amino acid positions 1-23 of the N-terminus of αS1 casein (SEQ ID NO: 22) (RPKHPIKHQGLPQEVLNENLLRF),white blood cell reconstitution (in words),[5],dramatic enhancement
"RPKHPIKHQGLPQEV [C, synthetic peptide, N-terminal 15 amino acids of αS1 casein]","peripheral white blood cell counts, day 10","[5]; BALB/c, 600 cGy, 1 mg per mouse intraperitoneal, control 1.67",1.72 ×10^6 cells per ml
same,"peripheral white blood cell counts, day 12","[5]; BALB/c, 600 cGy, 1 mg per mouse intraperitoneal, control 4.64",6.54 ×10^6 cells per ml
"RPKHPIKHQG [1a, synthetic peptide, N-terminal 10 amino acids of αS1 casein]",Healthy/Total (sugar not detected in urine),[1],1/5
same,Urine Sugar,[1],Negative
same,IPGT TEST 60 min. post load plasma glucose,[3],106 mg/dL
same,IPGT TEST 0 min. (pre-load) plasma glucose,[3],88 mg/dL
